According to the supplement of paper PMC10307832:

Key:
Experiment in all cases: relative viability (nuclei count vs DMSO), 5 days (fraction); higher = more cells survive
Ibrutinib + Bortezomib = compound: C=CC(=O)N1CCC[C@@H](n2nc(-c3ccc(Oc4ccccc4)cc3)c3c(N)ncnc32)C1 [Ibrutinib] + CC(C)C[C@H](NC(=O)[C@H](Cc1ccccc1)NC(=O)c1cnccn1)B(O)O [Bortezomib] (partner 0.002 µM)
Procedure, shortened: (§1)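 Lung cancer cell lines were seeded in 1536-well plates and dosed by pin tool the next day, with either a single drug or a fixed anchor-drug dose combined with five library-drug doses (not always all listed) spaced in √10 steps. Five days later, one step fixed the cells and stained their nuclei (final 0.05% Triton X-100, 1% formaldehyde, 1 ug/ml Hoechst), and nuclei were counted on 4× images. Relative viability is the nuclei count in treated wells divided by the count in vehicle wells, and each value is the median of duplicate plates.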

PAC-1 + Pemetrexed = compound: C=CCc1cccc(/C=N/NC(=O)CN2CCN(Cc3ccccc3)CC2)c1O [PAC-1] + Nc1nc2[nH]cc(CCc3ccc(C(=O)N[C@@H](CCC(=O)O)C(=O)O)cc3)c2c(=O)[nH]1 [Pemetrexed] (partner 0.2 µM)
Procedure, shortened: as §1

Ibrutinib + Linsitinib = compound: C=CC(=O)N1CCC[C@@H](n2nc(-c3ccc(Oc4ccccc4)cc3)c3c(N)ncnc32)C1 [Ibrutinib] + C[C@]1(O)C[C@@H](c2nc(-c3ccc4ccc(-c5ccccc5)nc4c3)c3c(N)nccn32)C1 [Linsitinib] (partner 1 µM)
Procedure, shortened: as §1

BMX-IN-1 + Palbociclib = compound: C=CC(=O)Nc1cc(-n2c(=O)ccc3cnc4ccc(-c5ccc(NS(C)(=O)=O)cc5)cc4c32)ccc1C [BMX-IN-1] + CC(=O)c1c(C)c2cnc(Nc3ccc(N4CCNCC4)cn3)nc2n(C2CCCC2)c1=O [Palbociclib] (partner 0.5 µM)
Procedure, shortened: as §1

Row | Cell Line | relative viability (Ibrutinib + Bortezomib; first compound 0.005 µM) | relative viability (Ibrutinib + Bortezomib; first compound 0.01581 µM) | relative viability (Ibrutinib + Bortezomib; first compound 0.05 µM) | relative viability (Ibrutinib + Bortezomib; first compound 0.1581 µM) | relative viability (Ibrutinib + Bortezomib; first compound 0.5 µM) | relative viability (PAC-1 + Pemetrexed; first compound 0.02 µM) | relative viability (PAC-1 + Pemetrexed; first compound 0.06325 µM) | relative viability (PAC-1 + Pemetrexed; first compound 0.2 µM) | relative viability (PAC-1 + Pemetrexed; first compound 2 µM) | relative viability (Ibrutinib + Linsitinib; first compound 0.005 µM) | relative viability (Ibrutinib + Linsitinib; first compound 0.01581 µM) | relative viability (Ibrutinib + Linsitinib; first compound 0.05 µM) | relative viability (Ibrutinib + Linsitinib; first compound 0.1581 µM) | relative viability (Ibrutinib + Linsitinib; first compound 0.5 µM) | relative viability (BMX-IN-1 + Palbociclib; first compound 0.02 µM) | relative viability (BMX-IN-1 + Palbociclib; first compound 0.2 µM) | relative viability (BMX-IN-1 + Palbociclib; first compound 0.6325 µM) | relative viability (BMX-IN-1 + Palbociclib; first compound 2 µM)
1 | 201T | 1.05 | 1.06 | 1.13 | 1.09 | 1.09 | 0.316 | 0.303 | 0.314 | 0.334 | 0.961 | 1.05 | 1.01 | 1.06 | 0.907 | 0.392 | 0.391 | 0.42 | 0.348
2 | A549 |  |  |  |  |  |  |  |  |  |  | 0.58 | 0.519 | 0.505 | 0.377 |  |  |  | 
3 | A-427 | 0.906 | 0.962 | 0.981 | 0.985 | 0.916 | 0.992 | 1.01 | 1.09 | 0.977 | 0.986 | 1.09 | 1.15 | 1.1 | 1.12 | 0.488 | 0.573 | 0.571 | 0.504
4 | ABC-1 | 0.36 | 0.271 | 0.33 | 0.33 | 0.306 |  |  |  |  | 0.822 | 0.736 | 0.795 | 0.879 | 0.644 | 0.76 | 0.503 | 0.537 | 0.589
5 | BEN | 0.54 | 0.828 | 0.667 | 0.57 | 0.572 | 0.719 | 0.74 | 0.718 | 0.655 | 0.766 | 0.885 | 0.853 | 0.851 | 0.883 | 0.489 | 0.479 | 0.479 | 0.518
6 | CAL-12T | 0.988 | 0.915 | 0.836 | 0.884 | 0.693 | 1.22 | 1.23 | 1.15 | 1.16 | 0.805 | 0.724 | 0.627 | 0.739 | 0.472 | 0.466 | 0.415 | 0.523 | 0.503
7 | COR-L23 | 1.13 | 0.992 | 0.983 | 0.917 | 1.1 | 0.206 | 0.192 |  | 0.206 | 1.16 | 0.867 | 0.973 | 0.986 |  | 0.306 | 0.293 | 0.384 | 0.311
8 | COR-L 105 | 0.514 | 0.607 | 0.512 | 0.683 | 0.348 | 0.983 | 1.1 | 1.04 | 1.05 | 0.739 | 0.811 | 0.709 | 0.914 | 0.321 | 0.449 | 0.442 | 0.447 | 0.39
9 | Calu-6 | 0.992 | 0.959 | 0.934 | 1.11 | 0.932 |  |  |  |  | 0.991 |  | 0.928 | 1.04 | 0.888 |  |  |  | 
10 | ChaGo-K-1 | 0.906 | 1.04 | 0.927 |  | 0.959 | 0.256 | 0.252 | 0.258 | 0.265 |  |  |  |  |  | 0.996 | 1.13 | 0.905 | 0.987
11 | EBC-1 | 0.693 | 0.524 | 0.555 | 0.668 | 0.486 |  |  |  |  | 0.848 | 1 | 0.825 | 0.864 | 0.952 |  |  |  | 
12 | EKVX | 0.894 | 0.929 | 0.975 | 0.925 | 0.489 | 0.356 | 0.407 | 0.355 | 0.395 | 0.893 | 0.944 | 1.12 | 1.05 | 0.613 | 0.424 | 0.37 | 0.773 | 0.416
13 | EMC-BAC-2 | 1 | 1 | 0.997 | 1.05 | 1.01 | 0.49 | 0.479 | 0.46 | 0.464 | 0.777 | 0.703 | 0.637 | 0.795 | 0.586 | 0.543 | 0.537 | 0.528 | 0.516
14 | EPLC-272H |  | 0.881 | 0.924 | 0.839 | 0.753 | 0.355 | 0.32 | 0.341 | 0.348 |  | 1.07 | 1.31 | 1.25 | 0.771 | 0.323 | 0.324 | 0.323 | 0.317
15 | H3255 | 0.583 | 0.889 | 0.51 | 0.617 | 0.313 | 0.601 | 0.521 | 0.495 | 0.596 | 0.925 | 0.772 | 0.685 | 1.06 | 0.227 | 0.311 | 0.318 | 0.349 | 0.299
16 | HARA | 1.02 | 1.14 | 0.987 | 0.976 | 0.937 | 0.23 | 0.234 | 0.264 | 0.239 | 1.09 | 0.818 | 0.751 | 0.904 |  | 0.304 | 0.299 | 0.258 | 0.247
17 | HCC-15 | 1.13 |  |  |  | 1.1 | 0.216 | 0.234 | 0.247 | 0.22 | 0.883 | 0.85 | 0.935 | 0.89 | 0.835 | 0.844 | 0.762 | 0.84 | 0.802
18 | HCC-44 | 0.896 | 0.881 | 0.987 | 0.908 | 0.946 | 0.649 | 0.615 | 0.588 | 0.684 | 0.682 | 0.591 | 0.673 | 0.732 | 0.645 | 1.02 | 0.96 | 0.996 | 0.979
19 | HCC-78 | 0.513 | 0.453 | 0.58 | 0.496 | 0.488 | 0.915 | 0.904 | 0.85 | 0.928 | 0.555 | 0.489 | 0.432 | 0.485 | 0.33 | 0.447 | 0.464 | 0.492 | 0.549
20 | HCC-366 | 1.03 | 0.977 | 1.09 | 1.01 | 1.07 | 0.176 | 0.162 | 0.159 | 0.164 | 0.634 | 0.614 | 0.662 | 0.51 | 0.614 | 0.535 | 0.385 | 0.454 | 0.485
